# Reference: patent US8501433B2, “Solvent for chromogenic substrate solution” (Pierce Biotechnology, Inc., priority 2002, dated 2013)
# Assay: Dissolution of X-gal (and antibiotics) in non-toxic solvents
# Assay type: physicochemical
# Settings: non-toxic solvent solutions of the invention
# Protocol: A combination of essential oil was extracted with chloroform in order to remove part of the oil phase, and create a semi-precipitated emulsion. For example, 20 ml of citrus extract, pine terpenoids, limonene oils and linseed oil was mixed with 20 ml of Chloroform by vigorously shaking in a 50 ml falcon tube. The resulting mix was let stand for approximately one day, and then the upper phase was transferred to a 15 ml falcon tube.
row,Compound,dissolution in the same solutions as X-gal
1,CC1(C)S[C@@H]2[C@H](NC(=O)[C@H](N)c3ccccc3)C(=O)N2[C@H]1C(=O)O [Ampicillin],stable dissolution
2,O=C(N[C@H](CO)[C@H](O)c1ccc([N+](=O)[O-])cc1)C(Cl)Cl [Chloramphenicol],stable dissolution
3,CN(C)[C@@H]1C(=O)C(C(N)=O)=C(O)[C@@]2(O)C(=O)C3=C(O)c4c(O)cccc4[C@@](C)(O)[C@H]3C[C@@H]12 [Tetracyclin],stable dissolution
